From patent publication US20260184708A1, “PYRIDAZINONES AND METHODS OF USE THEREOF” (GFB (ABC), LLC, priority 2017, published 2026)

Tests used:
Type in all cases: cell-based
[1] = target: T1, TRPC5 (Homo sapiens, UniProt Q9UL62); experiment: TRPC5 automated electrophysiology (Syncropatch - Spatch format); details: Table 6; HEK293 cells overexpressing TRPC5
T1 construct: expressed in transfected cells; host or cells: HEK 293
T1 sequence (Q9UL62 1-973): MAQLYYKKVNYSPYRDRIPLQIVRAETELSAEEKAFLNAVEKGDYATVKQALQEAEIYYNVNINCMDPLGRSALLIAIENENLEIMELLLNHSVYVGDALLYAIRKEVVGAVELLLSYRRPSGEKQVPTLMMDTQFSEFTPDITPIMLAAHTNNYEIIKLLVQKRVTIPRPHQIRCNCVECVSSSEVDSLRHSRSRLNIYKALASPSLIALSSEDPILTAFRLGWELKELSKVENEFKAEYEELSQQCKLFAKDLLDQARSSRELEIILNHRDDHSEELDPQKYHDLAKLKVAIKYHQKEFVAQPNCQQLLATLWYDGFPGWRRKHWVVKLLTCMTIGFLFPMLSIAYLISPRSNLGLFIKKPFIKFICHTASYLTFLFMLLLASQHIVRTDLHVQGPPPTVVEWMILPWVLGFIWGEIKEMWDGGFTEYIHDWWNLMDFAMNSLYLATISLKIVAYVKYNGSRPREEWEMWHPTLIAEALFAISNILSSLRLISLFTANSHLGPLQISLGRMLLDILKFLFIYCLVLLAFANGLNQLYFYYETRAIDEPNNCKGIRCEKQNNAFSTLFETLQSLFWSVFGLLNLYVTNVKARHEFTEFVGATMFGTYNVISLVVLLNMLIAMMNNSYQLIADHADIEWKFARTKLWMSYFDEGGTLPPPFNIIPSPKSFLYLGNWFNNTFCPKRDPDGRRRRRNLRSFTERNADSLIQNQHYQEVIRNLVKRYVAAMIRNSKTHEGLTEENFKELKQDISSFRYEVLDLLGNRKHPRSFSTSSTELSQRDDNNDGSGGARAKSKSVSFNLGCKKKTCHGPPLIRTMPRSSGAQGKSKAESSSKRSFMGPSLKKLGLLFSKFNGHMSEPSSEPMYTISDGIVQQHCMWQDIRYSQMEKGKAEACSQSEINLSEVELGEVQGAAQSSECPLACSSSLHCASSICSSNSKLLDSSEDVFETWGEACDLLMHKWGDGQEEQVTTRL
Experimental: The automated electrophysiological assay was carried out at room temperature. HEK-TRPC5 cells were cultured according to our standard operating procedures. Internal and external physiological solutions were freshly prepared prior to the assay. The free internal Ca2+ concentration was buffered to 1 μM according to the WCabuf software using 10 mMHEDTA. To monitor the ion currents, a voltage ramp from −100 mV to +80 mV, over 250 ms, was applied every 15 seconds, from a holding potential of −60 mV. To stabilize the inward and outward currents the voltage was kept steady at −100 mV and +80 mV for 20 ms. After recording for a minimum of 60 seconds control period, the activator (at 10, 15, 20 or 30 μM) was applied twice, before increasing concentrations of test compound (or vehicle) were applied to the cell. This was followed by a saturating concentration of the specific blocker ML 204 (100 μM). Graphs were plotted using the maximum outward current values obtained at +80 mV during the patch-clamp recordings. Data were normalized using the SyncroPatch384 equation Inorm=1−((Iconc−IFB)/(IRef−IFB)), where Iconc is the current amplitude at each concentration of agonist, IRef is the control current amplitude and IFB is the current in the presence of the saturating blocker ML204. Graphs were constrained between the maximum and minimum values. The series resistance (<15 MΩ) and quality of seals (>100 MΩ) were continuously monitored during the experiments. Data was analyzed using the Nanion Data Control384 software. EC/IC50 values were calculated using a least squares regression algorithm (Hill equation).

[2] = target: T1, TRPC5; experiment: TRPC5 automated patch clamp assay (Qpatch), current block after rosiglitazone stimulation; details: Table 6; HEK293 cells overexpressing TRPC5; read-out: TRPC5-QPatch IC50
In short: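 Currents were elicited by 300 ms voltage ramps (−100 to +100 mV, every 10 s, holding −60 mV) in human TRPC5-expressing HEK 293 cells on automated patch clamp, with Rosiglitazone (30 uM) activating the channel. Internal Ca2+ buffered to 1 μM; Hill-equation fitting gave IC50.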

[3] = target: T1, TRPC5; experiment: TRPC5 fluorescence assay, membrane potential dye, flexstation (FLEX); details: Table 6; HEK293 cells overexpressing TRPC5
Experimental: HEK 293 cells expressing human TRPC5 cells were trypsinised, counted and seeded in black, clear-bottomed 96-well plates at a density of 50,000 cells per well and incubated overnight. Next day, the cells were loaded with membrane potential dye. Dye solution was made up according to the manufacturer's instructions in HEPES buffered Hank's balanced salt solution (HBSS). Dye solution (10 μL) was added to the wells and incubated at 37° C. for 1 hour. The test compounds and standard inhibitors were added to the wells and incubated at room temperature for 10 minutes. The plates were then placed in the flexstation and fluorescence monitored every 1.52 seconds. After 20 seconds, 10 μL of the appropriate standard agonist was added and the fluorescence monitored for 2 minutes at ex/emm: 530 nm/565 nm.

Structure (SMILES) | IC50 [1] [nM] | IC50 [2] [nM] | IC50 [3] [nM]
CC[C@H](c1cncc(F)c1)n1cnc2c1CCN(c1cn[nH]c(=O)c1Cl)C2 | 1000 to 5000 | – | –
O=c1[nH]ncc(N2CCc3c(nnn3Cc3ccccc3C(F)F)C2)c1Cl | – | 0.01 to 1000 | 0.01 to 1000
O=c1[nH]ncc(N2CCc3c(ncn3Cc3ccc(F)nc3C(F)(F)F)C2)c1Cl | – | 0.01 to 1000 | 1000 to 5000
N#Cc1c(N2CCc3c(nnn3Cc3ccc(F)cc3C(F)(F)F)C2)cn[nH]c1=O | – | 1000 to 5000 | 10000 to 500000
O=c1[nH]ncc(N2CCc3c(ncn3Cc3ccccc3C(F)(F)F)C2)c1C1CC1 | – | 5000 to 10000 | 5000 to 10000
O=c1[nH]ncc(N2CCc3c(ncn3Cc3cnccc3C(F)(F)F)C2)c1Cl | – | 1000 to 5000 | 0.01 to 1000
CC1c2nnn(Cc3ccccc3C(F)F)c2CCN1c1cn[nH]c(=O)c1Cl (centres unmarked) [drawing 924] | 0.01 to 1000 | – | –
O=c1[nH]ncc(N2CCc3ncn(-c4ccccc4C(F)(F)F)c3C2)c1Cl [drawing 847] | – | 5000 to 10000 | 10000 to 500000
CC1Cc2c(nnn2Cc2ccccc2C(F)F)CN1c1cn[nH]c(=O)c1Cl (centres unmarked) | 0.01 to 1000 | – | –
C[C@H]1Cc2c(nnn2Cc2ccccc2C(F)F)CN1c1cn[nH]c(=O)c1Cl | 10000 to 500000 | – | –
O=c1[nH]ncc(N2CCc3c(ncn3Cc3ncccc3C(F)(F)F)C2)c1Cl | – | 1000 to 5000 | 0.01 to 1000
Cc1ccccc1Cn1cnc2c1CCN(c1cn[nH]c(=O)c1Cl)C2 [drawing 840] | – | 0.01 to 1000 | 0.01 to 1000
O=c1[nH]ncc(N2CCc3c(ncn3-c3cccc(C(F)(F)F)c3)C2)c1Cl | – | 1000 to 5000 | 0.01 to 1000
Cc1ccccc1-n1cc2c(n1)CCN(c1cn[nH]c(=O)c1Cl)C2 | – | 10000 to 500000 | 1000 to 5000
COc1cccc(Cn2nnc3c2CCN(c2cn[nH]c(=O)c2Cl)C3)c1C | 1000 to 5000 | – | –
N#Cc1c(N2CCc3c(ncn3Cc3ccccc3C(F)(F)F)C2)cn[nH]c1=O [drawing 873] | – | 0.01 to 1000 | 0.01 to 1000
N#Cc1cc(F)ccc1Cn1nnc2c1CCN(c1cn[nH]c(=O)c1Cl)C2 | 5000 to 10000 | – | –
N#Cc1ccccc1-n1cnc2c1CN(c1cn[nH]c(=O)c1C#N)CC2 [drawing 841] | – | 1000 to 5000 | 0.01 to 1000
O=c1[nH]ncc(N2CCc3c(ncn3Cc3ccccc3C(F)(F)F)C2)c1Br [drawing 838] | – | 1000 to 5000 | 0.01 to 1000
O=c1[nH]ncc(N2CCc3c(ncn3Cc3ccccc3C(F)(F)F)C2)c1Br [drawing 862] | – | 0.01 to 1000 | 0.01 to 1000
O=c1[nH]ncc(N2CCc3c(cnn3Cc3ccc(F)cc3C(F)(F)F)C2)c1Cl [drawing 864] | – | 0.01 to 1000 | 0.01 to 1000
CCc1ncccc1Cn1nnc2c1CCN(c1cn[nH]c(=O)c1C#N)C2 [drawing 918] | 1000 to 5000 | – | –
O=c1[nH]ncc(N2CCc3c(nnn3Cc3ccccc3C(F)(F)F)C2)c1Cl [drawing 859] | – | 0.01 to 1000 | 0.01 to 1000
CC1c2nnn(Cc3ccccc3C(F)F)c2CCN1c1cn[nH]c(=O)c1Cl (centres unmarked) [drawing 923] | 10000 to 500000 | – | –
Cc1ccccc1-n1cnc2c1CCN(c1cn[nH]c(=O)c1Cl)C2 | – | 1000 to 5000 | 10000 to 500000
N#Cc1c(N2CCc3c(ncn3Cc3ccccc3C(F)F)C2)cn[nH]c1=O | – | 1000 to 5000 | 0.01 to 1000

Structure (SMILES) | IC50 [1] [nM] | IC50 [2] [nM] | IC50 [3] [nM]
O=c1[nH]ncc(N2CCc3c(nnn3Cc3ccccc3C(F)(F)F)C2)c1Br | – | 1000 to 5000 | 0.01 to 1000
O=c1[nH]ncc(N2CCc3c(ncn3-c3ccccc3C(F)(F)F)C2)c1Cl [drawing 871] | – | 0.01 to 1000 | 0.01 to 1000
O=c1[nH]ncc(N2CCc3c(ncn3C3CCCCC3)C2)c1Cl | – | 5000 to 10000 | 10000 to 500000
O=c1[nH]ncc(N2CCc3c(cnn3Cc3ccccc3C(F)(F)F)C2)c1Cl | – | 0.01 to 1000 | 0.01 to 1000
O=c1[nH]ncc(N2CCc3c(nnn3Cc3cccnc3C(F)F)C2)c1Cl | 5000 to 10000 | – | –
O=c1[nH]ncc(N2CCc3c(ncn3Cc3ccncc3C(F)(F)F)C2)c1Cl | – | 1000 to 5000 | 0.01 to 1000
CCc1ncccc1Cn1cnc2c1CCN(c1cn[nH]c(=O)c1Cl)C2 | – | 0.01 to 1000 | 0.01 to 1000
O=c1[nH]ncc(N2CCc3c(ncn3Cc3ccccc3)C2)c1Cl [drawing 880] | – | 1000 to 5000 | 0.01 to 1000
O=c1[nH]ncc(N2CCc3c(nnn3Cc3ccc(F)cc3C(F)(F)F)C2)c1Cl | – | 0.01 to 1000 | 0.01 to 1000
CCc1cccnc1Cn1cnc2c1CCN(c1cn[nH]c(=O)c1Cl)C2 | – | 1000 to 5000 | 0.01 to 1000
Cc1ncccc1Cn1cnc2c1CCN(c1cn[nH]c(=O)c1Cl)C2 | – | 1000 to 5000 | 1000 to 5000
O=c1[nH]ncc(N2CCc3nn(-c4ccccc4C(F)(F)F)cc3C2)c1Cl | – | 10000 to 500000 | 0.01 to 1000
CCc1ncccc1Cn1nnc2c1CCN(c1cn[nH]c(=O)c1C#N)C2 [drawing 895] | – | 5000 to 10000 | 10000 to 500000
C[C@H](c1ccccc1)n1cnc2c1CCN(c1cn[nH]c(=O)c1Cl)C2 [drawing 842] | – | 1000 to 5000 | 0.01 to 1000
O=c1[nH]ncc(N2CCc3c(cnn3-c3ccccc3OC(F)(F)F)C2)c1Cl | – | 1000 to 5000 | 0.01 to 1000
O=c1[nH]ncc(N2CCc3c(ncn3Cc3ccc(F)cc3C(F)F)C2)c1Cl [drawing 892] | – | 0.01 to 1000 | 0.01 to 1000
Cc1ccccc1-n1ncc2c1CCN(c1cn[nH]c(=O)c1Cl)C2 | – | 0.01 to 1000 | 0.01 to 1000
O=c1[nH]ncc(N2CCc3c(ncn3Cc3cccnc3C(F)(F)F)C2)c1Cl | – | 1000 to 5000 | 1000 to 5000
O=c1[nH]ncc(Cl)c1N1CCc2c(nc(C3CC3)n2Cc2ccccc2C(F)(F)F)C1 | 10000 to 500000 | – | –
O=c1[nH]ncc(N2CCc3c(ncn3Cc3ccccc3C(F)(F)F)C2)c1Cl [drawing 850] | – | 0.01 to 1000 | 0.01 to 1000
CC[C@@H](c1cncc(F)c1)n1cnc2c1CCN(c1cn[nH]c(=O)c1Cl)C2 | – | 5000 to 10000 | 0.01 to 1000
O=c1[nH]ncc(N2CCc3ncn(Cc4ccc(C(F)(F)F)cc4)c3C2)c1Cl | – | 10000 to 500000 | 1000 to 5000
O=c1[nH]ncc(N2CCc3c(ncn3Cc3ccc(F)cc3C(F)(F)F)C2)c1Cl [drawing 844] | – | 0.01 to 1000 | 0.01 to 1000
O=c1[nH]ncc(N2CCc3c(ncn3Cc3ccc(C(F)(F)F)cc3)C2)c1C1CC1 | – | 10000 to 500000 | 10000 to 500000
N#Cc1c(N2CCc3c(nnn3Cc3ccccc3C(F)F)C2)cn[nH]c1=O | – | 1000 to 5000 | 10000 to 500000
